This is an account of results in US8450374B2, “Pan-antagonists for the androgen receptor and androgen receptor mutants associated with anti-androgen withdrawal” (priority 2009, dated 2013).

In one data set the target is T1, AR T877A (Homo sapiens, UniProt P10275, T878A).
T1 sequence (P10275 1-920 T878A): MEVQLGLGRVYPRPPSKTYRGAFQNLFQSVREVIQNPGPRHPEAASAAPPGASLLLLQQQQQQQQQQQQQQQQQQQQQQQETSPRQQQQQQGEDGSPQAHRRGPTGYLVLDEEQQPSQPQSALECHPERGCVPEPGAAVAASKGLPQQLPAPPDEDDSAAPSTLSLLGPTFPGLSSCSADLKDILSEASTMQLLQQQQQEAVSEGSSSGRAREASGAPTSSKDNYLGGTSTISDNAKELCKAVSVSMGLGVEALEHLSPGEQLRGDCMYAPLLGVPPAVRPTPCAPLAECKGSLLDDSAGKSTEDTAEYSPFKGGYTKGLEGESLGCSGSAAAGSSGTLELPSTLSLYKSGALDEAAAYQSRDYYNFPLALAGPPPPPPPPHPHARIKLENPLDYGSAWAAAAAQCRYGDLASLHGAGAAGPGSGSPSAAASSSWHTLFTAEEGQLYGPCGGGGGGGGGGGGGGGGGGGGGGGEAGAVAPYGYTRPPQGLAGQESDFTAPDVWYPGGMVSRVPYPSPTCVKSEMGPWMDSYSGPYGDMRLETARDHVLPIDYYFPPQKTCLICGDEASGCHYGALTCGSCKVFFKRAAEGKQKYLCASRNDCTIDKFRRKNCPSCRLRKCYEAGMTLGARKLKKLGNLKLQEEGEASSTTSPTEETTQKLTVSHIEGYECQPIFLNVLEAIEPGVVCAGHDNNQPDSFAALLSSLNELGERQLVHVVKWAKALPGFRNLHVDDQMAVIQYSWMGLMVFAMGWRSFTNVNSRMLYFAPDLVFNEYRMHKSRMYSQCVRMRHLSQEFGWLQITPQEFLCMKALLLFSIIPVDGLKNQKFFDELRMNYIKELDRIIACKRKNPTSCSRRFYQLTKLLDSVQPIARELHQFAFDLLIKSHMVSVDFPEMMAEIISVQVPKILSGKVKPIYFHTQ
Put plainly: Competitive binding assay, [3H]DHT, transfected COS-7 cells, AR T877A. The following applies: 14 nM [3H]-DHT, read-out: Binding affinity (Ki), AR T877A. More on the design: expressed in transfected cells; host or cells: COS-7. On the procedure: Twenty-four hours prior to transfection, COS-7 cells were seeded at a density of 70,000 cells per well in 24-well cell culture plates and grown in phenol red free Dulbecco's Modified Eagle Medium (DMEM) supplement with 10% cosmic calf serum (CCS). The cells were transfected with a prokaryotic expression vector encoding the wild-type androgen receptor or mutant androgen receptor using Lipofectamine (Invitrogen) following manufacturer's protocol. […] Cells were washed with PBS and harvested in 2% SDS, 10% glycerol, and 10 mM Tris, pH 6.8, and radioactivity determined by scintillation counting.

The test system of data set [1] is LNCaP cells. Description: LIVE/DEAD cytotoxicity assay. The conditions noted are these: 1 μM, nine days, RPMI + 10% DCC-FBS. It is filed as cell-based. How it is done:
FIG. 1. […] The pictures were taken after nine days of incubation in RPMI supplemented with 10% DCC-FBS plus indicated antiandrogens. B and C. Quantitative analysis of images.
Media was changed every 3 days and floating cells were centrifuged down and reseeded into dish. LIVE/DEAD reagent was added after 9 days culturing. Live cells (indicated by green fluorescence) were counted and compared to the number of dead cells (red).

The test system of data set [2] is LNCaP cells. Description: Clonogenic assay / in vitro selection for antiandrogen resistance. The conditions noted are these: RPMI + 10% DCC-FBS. In kind it is cell-based. How it is done: Clonogenic assays are performed by a modification of the procedure described by Nara et al. (Cancer Research 2003, 63, 149-153). […] Media was changed every three days was and documented weekly. If cells reach 95% confluence, the cells were counted and reseeded at a density of 80,000 cell per well.

A further data set concerns the target T2, GFP-AR (Homo sapiens, UniProt P10275).
T2 construct: expressed in transfected cells; host or cells: CV-1 monkey kidney cells
T2 sequence (P10275 1-920): T1 sequence (P10275 1-920 T878A) with A878T
Description: Nuclear localization of GFP-AR in CV-1 cells. In kind it is cell-based. The conditions noted are these: 2 h after ligand addition; DHT 10 μM, other ligands 100 μM.

Data set [3] addresses T3, AR protein levels in LNCaP cells (Homo sapiens, UniProt P10275, T878A).
T3 construct: endogenous in cells; host or cells: LNCaP
T3 sequence (P10275 1-920 T878A): T1 sequence (P10275 1-920 T878A)
Put plainly: AR downregulation by western blot, LNCaP cells. In kind it is cell-based. The following applies: LNCaP cells, 10, 50 or 100 μM, 24 h. How it is done:
(§1) Compounds that down regulate the levels of AR in prostate cancer may be effective in androgen dependent cells and anti-androgen resistant cells that over express the androgen receptor. […] LNCaP or CRW22RV1 cells were treated with 10 μM, 50 μM or 100 μM compound for 24 h. Cells were harvested and lysed. Cell lysates were analyzed by SDS-PAGE followed by immunostaining with anti-AR and anti-lamin antibodies (see FIGS. 15 and 16).
On the technique in general: Immunoblotting shows a protein as a band on a membrane.

For data set [4], the system named is AR protein levels in CRW22 cells. Description: AR downregulation by western blot, CRW22RV1 cells. It is filed as cell-based. The conditions noted are these: CRW22RV1 cells, 10, 50 or 100 μM, 24 h. How it is done:
as §1

Data set [5] is described as follows: In vivo tolerability of PAN52. More on the design: species or system Male C57Bl/6 mice. The following applies: 25 mg/kg/day IP in 9:1 Cremophor, 3 day or 5 day course.

The structures appear in SMILES notation. Numbering of substitutions follows the chain as printed.

Description for GFP-AR: Nuclear localization of GFP-AR in CV-1 cells grown in 10% charcoal stripped CCS/DMEM.
CV-1 monkey kidney cells were seeded in a 12 well plate at a concentration of 50,000 cells per well. After 24 h, the cells were transfected with GFP-AR in a solution of Opti-MEM and Lipofectamine 2000, and incubated overnight. The cells were then imaged on a fluorescent microscope, followed by the addition of 6 respective ligands, and control (DMSO vehicle). […] The cells were incubated for two hours and again imaged. The cells were fixed, and stained (DAPI) to image the nucleus.

As a reminder, the Ki is the dissociation constant of the complex between target and ligand, obtained from inhibition or displacement. Regarding `CN(C)CCCOc1cccc(Cc2ccccc2S(=O)(=O)CC(C)(O)C(=O)Nc2ccc(C#N)c(C(F)(F)F)c2)c1` (stereo not drawn) [PAN22], the Ki on AR T877A was 1.75 µM.

As to `CN(C)CCCOc1cccc(-c2ccccc2S(=O)(=O)CC(C)(O)C(=O)Nc2ccc(C#N)c(C(F)(F)F)c2)c1` (stereo not drawn) [PAN52], in the data set on LNCaP cells [1], the “Viable cells (green) in fluorescence images” value is on record as “almost all cells”. Besides, the “Ability to evade resistance in in vitro selections (resistant LNCaP clones)” value with LNCaP cells [2] is on record as “evade resistance”. Besides, the “Nuclear localization of GFP-AR fluorescence” value at GFP-AR was “little to no nuclear localization”. The “AR protein levels relative to bicalutamide, DHT or DMSO controls” value in data set [3] and in data set [4] was “downregulation of AR protein levels” throughout. In addition, the “Behavior in grooming or feeding” value in data set [5] is listed as “no abnormal behavior in grooming or feeding”. Further, on AR T877A, the Ki was 4.13 µM.

Take `CN(C)CCCOc1ccc(-c2ccccc2S(=O)(=O)CC(C)(O)C(=O)Nc2ccc(C#N)c(C(F)(F)F)c2)cc1` (stereo not drawn) [PAN62]: the Ki on AR T877A worked out at 4.3 µM.
